O=C1CCCC(=O)C1
solubility (mole fraction)
Details	288.15 K	293.15 K	298.15 K	303.15 K	308.15 K	313.15 K	318.15 K	323.15 K	328.15 K
in 2-butanone	0.0273	0.0355	0.0534	0.0727	0.0991	0.133	0.162	0.215	0.264
in THF	0.0855	0.109	0.135	0.164	0.208	0.246	0.307	0.347	0.392
in acetone	0.0488	0.0624	0.0834	0.108	0.132	0.173	0.211	0.245	0.282
in acetonitrile	0.0156	0.0198	0.0258	0.035	0.044	0.0538	0.0685	0.09	0.113
in chloroform	0.238	0.256	0.29	0.317	0.364	0.4	0.432	0.47	0.505
in ethyl acetate	0.0126	0.0155	0.0194	0.0244	0.0307	0.039	0.0515	0.0626	0.0819
in ethyl butyrate	0.0083	0.0103	0.0125	0.0148	0.0184	0.0221	0.0266	0.0322	0.0379
in ethyl formate	0.0109	0.0141	0.0182	0.0231	0.0287	0.0359	0.0492	0.0591	0.0694
in ethyl propionate	0.0118	0.0139	0.017	0.0203	0.0246	0.0294	0.0353	0.041	0.0495
in isopropyl acetate	0.0125	0.0146	0.017	0.0194	0.0228	0.0269	0.0302	0.0368	0.0424
in methyl acetate	0.0146	0.02	0.0247	0.0313	0.0406	0.0524	0.0714	0.0886	0.105
in n-butyl acetate	0.0119	0.0141	0.0168	0.0202	0.0237	0.0282	0.0347	0.0403	0.0457
in n-propyl acetate	0.0121	0.0147	0.0176	0.0214	0.0263	0.0324	0.0381	0.0457	0.0535
in toluene	0.00171	0.00244	0.00335	0.00445	0.00577	0.00803	0.0106	0.0136	0.0165
